Data reported in article PMC8637766, “A mixed chirality α-helix in a stapled bicyclic and a linear antimicrobial peptide revealed by X-ray crystallography” (RSC Chemical Biology, 2021).
Values after ≈ are worked out from the molar mass of the structure shown. Peptide text beside a SMILES is read from it.

Key:
B. subtilis BR151 = type: cell-based, Bacillus subtilis; details: BR151, 20 h
Experimental: (§1) Bicyclic and linear peptides cytotoxicity was assayed against P. aeruginosa PAO1, P. aeruginosa ZEM-1A, P. aeruginosa ZEM9A, K. pneumoniae Oxa-48, E. coli W3110, A. baumannii BAL225, S. aureus Newman, S. aureus COL (clinical isolate of MRSA) , B. Subtilis BR151.
(§2) To determine the Minimal Inhibitory Concentration (MIC), Broth Microdilution method was used . 2 A colony of bacteria from glycerol stock was grown in LB medium overnight at 37 °C and 180 rpm shaking. The compounds were prepared as stock solutions of 8 mg/mL in sterilized milliQ deionized water, added to the first well of 96 -well sterile, polypropylene round bottom microtiter plates (TPP, untreated) and diluted serially by ½. The concentration of the bacteria was quantified by measuring absorbance at 600 nm and diluted to an OD 600 of 0.022 in MH medium. The sample solutions (150 µL) were mixed with 4 µL diluted bacterial suspension with a final inoculation of about 5×10^5 CFU.
For each test, two columns of the plate were kept for sterility control (MH medium only), growth control (MH medium with bacterial inoculum, no compound). The positive control, Polymyxin B (starting with a concentration of 64 µg/mL) in MH medium with bacterial inoculums, was introduced in the two first lines of the plate. […]
conditions. 15 μL of 3-(4,5-dimethylthiazol-2-yl)-2,5-diphenyltetrazolium bromide (MTT)3 (1 mg/mL in sterilized milliQ deionized water) were added to each well and the plates were incubated for 20-30 minutes at room temperature. The minimal inhibitory concentration (MIC) was defined as the lowest concentration of the dendrimer that inhibits the visible growth of the tested bacteria (yellow) with the unaided eye.

P. aeruginosa PAO1 = type: cell-based, Pseudomonas aeruginosa
Experimental: as §1, §2
For each test, two columns of the plate were kept for sterility control (MH medium only), growth control (MH medium with bacterial inoculum, no compound). The positive control, Polymyxin B (starting with a concentration of 64 µg/mL) in MH medium with bacterial inoculums, was introduced in the two first lines of the plate. The plates were incubated at 37 °C for ~18 hours under static conditions. 15 μL of 3-(4,5-dimethylthiazol-2-yl)-2,5-diphenyltetrazolium bromide (MTT)3 (1 mg/mL in sterilized milliQ deionized water) were added to each well and the plates were incubated for 20-30 minutes at room temperature. The minimal inhibitory concentration (MIC) was defined as the lowest concentration of the dendrimer that inhibits the visible growth of the tested bacteria (yellow) with the unaided eye.

[1] = Lipid vesicle leakage assay, 5(6)-carboxyfluorescein release; details: for EYPC vesicle leakage / EYPG vesicle leakage: 10 μg mL^−1 compound, leakage at 250 s, 10 mM TRIS, 107 mM NaCl, pH 7.4, 25 °C, carboxyfluorescein fluorescence, Triton X-100 = full release
Experimental: 4 Lipid Vesicle Leakage assays
5(6)-carboxyfluorescein (CF) was purchased from Sigma. Egg Yolk Phosphatidylcholine (EYPC),
Egg Yolk Phosphatidylglycerol (EYPG) and a Mini-Extruder were purchased from Avanti Polar
Lipids. Egg PC or Egg PG thin lipid layers were prepared by evaporating a solution of 100 mg EYPC
or EYPG in 4 mL MeOH/CHCl3 (1:1) on a rotary evaporator at room temperature and then dried in
vacuo overnight. The resulting film was then hydrated with 4 mL CF buffer (50 mM CF, 10 mM
TRIS, 107 mM NaCl, pH 7.4) for 30 min, subjected to freeze-thaw cycles (7×) and extrusion (15×)
through a polycarbonate membrane (pore size 100 nm). Extra vesicular components were removed
by gel filtration (Sephadex G-50) with 10 mM TRIS, 107 mM NaCl, pH 7.4 buffer. Final conditions:
~ 2.5 mM PC or PG; inside: 50 mM CF, 10 mM TRIS, 10 mM NaCl, pH 7.4 buffer; outside: 10 mM
TRIS, 107 mM NaCl, pH 7.4. PC or PG stock solutions (37.5 µL) were diluted to 3000 µL with a
buffer (10 mM TRIS, 107 mM NaCl, pH 7.4) in a thermostated fluorescence cuvette (25 °C) and
gently stirred (final lipid concentration ~31 µM). CF efflux was monitored at λem 517 nm (λex 492
nm) as a function of time after addition of the desired volume of peptide (1 or 20 mg/mL stock in mQ
water) at t = 45 s. The following final concentrations of peptide were monitored: 5, 10, 15, 20, 25 and
200 µg/mL. Finally, 30 µL of 1.2% Triton X -100 was added to the cuvette (0.012% final
concentration) at t = 285 s to reach the maximum intensity. Fluorescence intensities were then
Figure S1: Vesicle leakage experiments using 5(6)-carboxyfluorescein induced by peptides. EYPG and EYPC vesicles
were suspended in buffer (10 mM TRIS, 107 mM NaCl, pH 7.4) and the indicated concentration of the compound was
added after 45 sec. After 285 seconds 30 μL Triton X-100 1.2% was added for full release of fluorescein. […]

MIC BR 151 (B. subtilis BR151) [µg/mL]	MIC PAO1 (P. aeruginosa PAO1) [µg/mL]	SMILES	also measured
4 (≈ 3.01 µM)	>64	Cc1c2cc3cc1CSC[C@H](NC(=O)[C@H](CCCCN)NC(=O)[C@H](CC(C)C)NC(=O)[C@H](CC(C)C)NC(=O)[C@H](CCCCN)NC(=O)[C@H](CCCCN)NC3=O)C(=O)N[C@@H](CC(C)C)C(=O)N[C@@H](CCCCN)C(=O)N[C@H](C(=O)N[C@@H](CC(C)C)C(N)=O)CSC2 [bp3] (HELM PEPTIDE1{K.K.L.L.K.C.L.K.C.L.[am]}|CHEM1{[Cc1c(C[*:2])cc(C(=O)[*:1])cc1C[*:3]]}$PEPTIDE1,CHEM1,1:R1-1:R1|PEPTIDE1,CHEM1,6:R3-1:R2|PEPTIDE1,CHEM1,9:R3-1:R3$$$V2.0)	–
4 (≈ 3.01 µM)	–	Cc1c2cc3cc1CSC[C@H](NC(=O)[C@H](CCCCN)NC(=O)[C@H](CCCCN)NC(=O)[C@H](CC(C)C)NC(=O)[C@H](CC(C)C)NC(=O)[C@H](CCCCN)NC3=O)C(=O)N[C@@H](CC(C)C)C(=O)N[C@@H](CCCCN)C(=O)N[C@H](C(=O)N[C@@H](CC(C)C)C(N)=O)CSC2 [bp59] (HELM PEPTIDE1{K.L.L.K.K.C.L.K.C.L.[am]}|CHEM1{[Cc1c(C[*:2])cc(C(=O)[*:1])cc1C[*:3]]}$PEPTIDE1,CHEM1,1:R1-1:R1|PEPTIDE1,CHEM1,6:R3-1:R2|PEPTIDE1,CHEM1,9:R3-1:R3$$$V2.0)	–
> 64	–	Cc1c2cc3cc1CSC[C@H](NC(=O)[C@H](CC(C)C)NC(=O)[C@H](CCCCN)NC(=O)[C@H](CC(C)C)NC(=O)[C@H](CC(C)C)NC(=O)[C@H](CCCCN)NC3=O)C(=O)N[C@@H](CCCCN)C(=O)N[C@@H](CCCCN)C(=O)N[C@H](C(=O)N[C@@H](CC(C)C)C(N)=O)CSC2 [bp60] (HELM PEPTIDE1{K.L.L.K.L.C.K.K.C.L.[am]}|CHEM1{[Cc1c(C[*:2])cc(C(=O)[*:1])cc1C[*:3]]}$PEPTIDE1,CHEM1,1:R1-1:R1|PEPTIDE1,CHEM1,6:R3-1:R2|PEPTIDE1,CHEM1,9:R3-1:R3$$$V2.0)	–
> 64	–	Cc1c2cc3cc1CSC[C@H](NC(=O)[C@H](CC(C)C)NC(=O)[C@H](CCCCN)NC(=O)[C@H](CCCCN)NC3=O)C(=O)N[C@@H](CCCCN)C(=O)N[C@@H](CC(C)C)C(=O)N[C@H](C(=O)N[C@@H](CCCCN)C(=O)N[C@@H](CC(C)C)C(N)=O)CSC2 [bp61] (HELM PEPTIDE1{K.K.L.C.K.L.C.K.L.[am]}|CHEM1{[Cc1c(C[*:2])cc(C(=O)[*:1])cc1C[*:3]]}$PEPTIDE1,CHEM1,1:R1-1:R1|PEPTIDE1,CHEM1,4:R3-1:R2|PEPTIDE1,CHEM1,7:R3-1:R3$$$V2.0)	–
32 (≈ 24 µM)	–	Cc1c2cc3cc1CSC[C@H](NC(=O)[C@H](CC(C)C)NC(=O)[C@H](CC(C)C)NC(=O)[C@H](CC(C)C)NC(=O)[C@H](CCCCN)NC(=O)[C@H](CCCCN)NC3=O)C(=O)N[C@@H](CCCCN)C(=O)N[C@@H](CC(C)C)C(=O)N[C@H](C(=O)N[C@@H](CCCCN)C(N)=O)CSC2 [bp62] (HELM PEPTIDE1{K.K.L.L.L.C.K.L.C.K.[am]}|CHEM1{[Cc1c(C[*:2])cc(C(=O)[*:1])cc1C[*:3]]}$PEPTIDE1,CHEM1,1:R1-1:R1|PEPTIDE1,CHEM1,6:R3-1:R2|PEPTIDE1,CHEM1,9:R3-1:R3$$$V2.0)	–
4 (≈ 3.01 µM)	–	Cc1c2cc3cc1CSC[C@H](NC(=O)[C@H](CC(C)C)NC(=O)[C@H](CCCCN)NC(=O)[C@H](CCCCN)NC3=O)C(=O)N[C@@H](CCCCN)C(=O)N[C@@H](CC(C)C)C(=O)N[C@@H](CC(C)C)C(=O)N[C@@H](CCCCN)C(=O)N[C@H](C(=O)N[C@@H](CC(C)C)C(N)=O)CSC2 [bp63] (HELM PEPTIDE1{K.K.L.C.K.L.L.K.C.L.[am]}|CHEM1{[Cc1c(C[*:2])cc(C(=O)[*:1])cc1C[*:3]]}$PEPTIDE1,CHEM1,1:R1-1:R1|PEPTIDE1,CHEM1,4:R3-1:R2|PEPTIDE1,CHEM1,9:R3-1:R3$$$V2.0)	–
16 (≈ 12 µM)	–	Cc1c2cc3cc1CSC[C@H](NC(=O)[C@H](CCCCN)NC(=O)[C@H](CC(C)C)NC(=O)[C@H](CC(C)C)NC(=O)[C@H](CCCCN)NC(=O)[C@H](CCCCN)NC3=O)C(=O)N[C@@H](CCCCN)C(=O)N[C@@H](CC(C)C)C(=O)N[C@H](C(=O)N[C@@H](CC(C)C)C(N)=O)CSC2 [bp64] (HELM PEPTIDE1{K.K.L.L.K.C.K.L.C.L.[am]}|CHEM1{[Cc1c(C[*:2])cc(C(=O)[*:1])cc1C[*:3]]}$PEPTIDE1,CHEM1,1:R1-1:R1|PEPTIDE1,CHEM1,6:R3-1:R2|PEPTIDE1,CHEM1,9:R3-1:R3$$$V2.0)	–
> 64	–	Cc1c2cc3cc1CSC[C@H](NC(=O)[C@H](CC(C)C)NC(=O)[C@H](CCCCN)NC(=O)[C@H](CCCCN)NC3=O)C(=O)N[C@@H](CCCCN)C(=O)N[C@@H](CC(C)C)C(=O)N[C@@H](CC(C)C)C(=O)N[C@@H](CCCCN)C(=O)N[C@H](C(N)=O)CSC2 [bp66] (HELM PEPTIDE1{K.K.L.C.K.L.L.K.C.[am]}|CHEM1{[Cc1c(C[*:2])cc(C(=O)[*:1])cc1C[*:3]]}$PEPTIDE1,CHEM1,1:R1-1:R1|PEPTIDE1,CHEM1,4:R3-1:R2|PEPTIDE1,CHEM1,9:R3-1:R3$$$V2.0)	–
–	32 (≈ 22.2 µM)	Cc1c2cc3cc1CSC[C@H](C(=O)N[C@@H](CC(C)C)C(=O)N[C@H](CC(C)C)C(N)=O)NC(=O)[C@H](CCCCN)NC(=O)[C@@H](CC(C)C)NC(=O)[C@H](CSC2)NC(=O)[C@@H](CCCCN)NC(=O)[C@H](CC(C)C)NC(=O)[C@@H](CC(C)C)NC(=O)[C@H](CCCCN)NC(=O)[C@@H](CCCCN)NC3=O [bp67] (HELM PEPTIDE1{[dK].K.[dL].L.[dK].C.[dL].K.[dC].L.[dL].[am]}|CHEM1{[Cc1c(C[*:2])cc(C(=O)[*:1])cc1C[*:3]]}$PEPTIDE1,CHEM1,1:R1-1:R1|PEPTIDE1,CHEM1,6:R3-1:R2|PEPTIDE1,CHEM1,9:R3-1:R3$$$V2.0)	EYPC vesicle leakage [1]: 6%; EYPG vesicle leakage [1]: 48%; Leakage activity on EYPC vesicles, in words ([1]; zwitterionic EYPC vesicles mimicking eukaryotic membranes): very low leakage activity
–	16 (≈ 11.1 µM)	Cc1c2cc3cc1CSC[C@@H](NC(=O)[C@H](CCCCN)NC(=O)[C@H](CC(C)C)NC(=O)[C@H](CC(C)C)NC(=O)[C@H](CCCCN)NC(=O)[C@H](CCCCN)NC3=O)C(=O)N[C@@H](CC(C)C)C(=O)N[C@@H](CCCCN)C(=O)N[C@@H](C(=O)N[C@@H](CC(C)C)C(=O)N[C@@H](CC(C)C)C(N)=O)CSC2 [bp68] (HELM PEPTIDE1{K.K.L.L.K.[dC].L.K.[dC].L.L.[am]}|CHEM1{[Cc1c(C[*:2])cc(C(=O)[*:1])cc1C[*:3]]}$PEPTIDE1,CHEM1,1:R1-1:R1|PEPTIDE1,CHEM1,6:R3-1:R2|PEPTIDE1,CHEM1,9:R3-1:R3$$$V2.0)	EYPC vesicle leakage [1]: 18%; EYPG vesicle leakage [1]: 44%
